These results are taken from PubChem BioAssay (NCI).

Test systems include BT-549 breast; RXF 393 renal; UACC-62 melanoma; RPMI-8226 leukemia; A498 renal; DU-145 prostate; CCRF-CEM leukemia; MCF7 breast; MOLT-4 leukemia; SNB-19 CNS.
Holding throughout (assay): NCI-60 cell line screen, 48 h

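Dose response: 5 concentrations. Exposure: 48 h. Format: 96-well plates. Endpoint: linear interpolation; highest concentration if not reached. GI50 marks 50% less growth. TGI: total growth inhibition.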

Take `CC(C)(C)[Si](C)(C)OC1[C@@H](CNC(N)=O)O[C@@H](n2cnc3c(NC(=O)Nc4ccccc4)ncnc32)[C@H]1O[Si](C)(C)C(C)(C)C` (stereo not given in full): the GI50 with BT-549 breast is 2.47 µM; in the experiment on RXF 393 renal, 1.95 µM; with UACC-62 melanoma, 6.19 µM; in the experiment on RPMI-8226 leukemia, 1.12 µM; with A498 renal it was 1.56 µM; in the experiment with DU-145 prostate, 1.71 µM. For the same compound, the GI50 is 1.06 µM in the experiment on CCRF-CEM leukemia, 1.83 µM in the experiment on MCF7 breast, 1.06 µM in the experiment on MOLT-4 leukemia and 5.7 µM with SNB-19 CNS. The TGI turned out to be 9.2 µM in the experiment on BT-549 breast; 7.02 µM in the experiment on RXF 393 renal; 12.6 µM in the experiment with UACC-62 melanoma; 2.63 µM in the experiment with RPMI-8226 leukemia; 8.04 µM in the experiment with A498 renal; 5.59 µM in the experiment on DU-145 prostate. The TGI in the experiment on CCRF-CEM leukemia was determined as 2.48 µM; in the experiment with MCF7 breast, 8.51 µM; with MOLT-4 leukemia, 2.24 µM; in the experiment on SNB-19 CNS it was 12.4 µM.

For the compound `COc1ccc2c(c1)CN([C@@H](C)[C@H]1CC[C@H]3[C@@H]4CC[C@H]5C[C@@H](O)CC[C@]5(C)[C@H]4CC[C@]13C)CO2`, the TGI was 14.4 µM in the experiment on BT-549 breast; 2.74 µM in the experiment with RXF 393 renal; 3.88 µM in the experiment with UACC-62 melanoma; 1.97 µM in the experiment with RPMI-8226 leukemia; 3.45 µM in the experiment on A498 renal; 13.7 µM with DU-145 prostate. Further, the TGI with CCRF-CEM leukemia amounted to 6.19 µM; in the experiment on MCF7 breast it was 11.8 µM; with MOLT-4 leukemia, 2.98 µM; in the experiment with SNB-19 CNS it was 4.1 µM.

Take `c1ccc(-c2nc3n(c2-c2ccc4c(c2)OCO4)CCC3)nc1`: the GI50 was 10 µM with BT-549 breast; 2.45 µM in the experiment with RXF 393 renal; 5.31 µM with UACC-62 melanoma; 9.88 µM in the experiment on RPMI-8226 leukemia; 5.76 µM in the experiment with A498 renal; 7.22 µM in the experiment with DU-145 prostate. Moreover, the GI50 with CCRF-CEM leukemia was 7.63 µM; in the experiment on MCF7 breast, 7.89 µM; with MOLT-4 leukemia it was 6.63 µM; with SNB-19 CNS, 8.74 µM. Besides, the TGI in the experiment on BT-549 breast is over 25 µM; in the experiment with RXF 393 renal, over 17.5 µM; in the experiment with UACC-62 melanoma, 16.2 µM; with RPMI-8226 leukemia, over 25 µM; with A498 renal, 20.6 µM; in the experiment with DU-145 prostate, over 25 µM. In addition, the TGI in the experiment on CCRF-CEM leukemia is over 25 µM; in the experiment on MCF7 breast it was over 21.3 µM; with MOLT-4 leukemia, over 21.4 µM; in the experiment with SNB-19 CNS it was over 25 µM.

Turning to `N=c1ccc2nc3ccc(N)cc3sc-2c1`, the GI50 in the experiment on BT-549 breast was 10.6 µM; in the experiment with RXF 393 renal, 12.2 µM; with UACC-62 melanoma, 2.93 µM; in the experiment with RPMI-8226 leukemia, 2.87 µM; in the experiment on A498 renal, 26.2 µM; with DU-145 prostate, 16.8 µM. The GI50 in the experiment on CCRF-CEM leukemia is 3.55 µM; in the experiment with MCF7 breast, 3.5 µM; with MOLT-4 leukemia, 4.59 µM; in the experiment on SNB-19 CNS, 3.17 µM. In addition, the TGI in the experiment on BT-549 breast was 60.9 µM; in the experiment with RXF 393 renal, 28.2 µM; in the experiment on UACC-62 melanoma, 8.38 µM; in the experiment with RPMI-8226 leukemia, 26 µM; with A498 renal, over 100 µM; in the experiment with DU-145 prostate, 40.8 µM. For the same compound, the TGI in the experiment on CCRF-CEM leukemia is 35.3 µM; in the experiment with MCF7 breast, 13.1 µM; in the experiment with MOLT-4 leukemia, over 100 µM; in the experiment with SNB-19 CNS, 14.9 µM.

As for `COc1ccc(/C=C2/C(=O)N(C(=O)c3ccccc3O)N=C2C)cc1`, the TGI with BT-549 breast is 98.1 µM; in the experiment on RXF 393 renal, 1.23 µM; with UACC-62 melanoma, over 100 µM; with RPMI-8226 leukemia, over 100 µM; with A498 renal, 0.0747 µM; in the experiment on DU-145 prostate, over 100 µM. In addition, the TGI in the experiment on CCRF-CEM leukemia, in the experiment on MCF7 breast, in the experiment on MOLT-4 leukemia and in the experiment with SNB-19 CNS was over 100 µM in each case.

For `CC(=O)c1ccc2c(c1)N(CCCN1CCN(CCO)CC1)c1ccccc1S2`, the GI50 in the experiment with BT-549 breast is 3.38 µM; in the experiment on RXF 393 renal it was 2.09 µM; with UACC-62 melanoma, 1.88 µM; in the experiment on RPMI-8226 leukemia, 2.4 µM; in the experiment on A498 renal, 1.55 µM; in the experiment on DU-145 prostate, 4.55 µM. Further, the GI50 in the experiment on CCRF-CEM leukemia was 1.68 µM; in the experiment with MCF7 breast it was 1.78 µM; in the experiment on MOLT-4 leukemia, 2.99 µM; in the experiment on SNB-19 CNS, 2.44 µM. The TGI in the experiment with BT-549 breast stood at 11.9 µM; in the experiment with RXF 393 renal, 5.95 µM; with UACC-62 melanoma, 3.83 µM; with RPMI-8226 leukemia, 8.75 µM; in the experiment with A498 renal, 3.91 µM; in the experiment on DU-145 prostate it was 15.8 µM. The TGI with CCRF-CEM leukemia was 5.53 µM; in the experiment on MCF7 breast it was 3.52 µM; in the experiment with MOLT-4 leukemia, 8.86 µM; in the experiment with SNB-19 CNS, 6.97 µM.
